Experimental data: US10787432B2, “N-[(pyridyloxy)propanyl]benzamides” (Boehringer Ingelheim International GmbH, priority 2016, dated 2020)
Like-named read-outs stand apart in the source and are kept apart here.

How the values were obtained:
[1] = Assay C: Metabolic stability in human liver microsomes (Human MST); type: in vitro ADME; conditions: pooled human liver microsomes, pH 7.6; human liver microsomes 1 mg/mL, compound 1 μM, 37° C., NADPH; read-out: Human MST t1/2
How it was run: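 Test compound (1 μM) was incubated at 37 °C with pooled human liver microsomes (1 mg/mL protein) in 0.1 M TRIS pH 7.6 with 5 mM MgCl2, and reactions were started with 1 mM NADPH. Aliquots were quenched at several time points and parent compound was quantified by LC-MS/MS. t1/2 came from the slope of the semi-log concentration–time plot.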

human orexin 2 receptor = target: T1, human orexin 2 receptor (Homo sapiens, UniProt O43614); assay: Assay B: In vitro testing of OX2R potency: OX2R IP1 (HTRF, CHO-K1/hOX2 cells, Orexin A as agonist); type: cell-based; conditions: Orexin A 0.5 nM
T1 construct: stably expressing the full-length human orexin 2 receptor; expressed in transfected cells; host or cells: CHO-K1 (CHO-K1/hOX2), co-expressing aequorin
T1 sequence (O43614 1-444): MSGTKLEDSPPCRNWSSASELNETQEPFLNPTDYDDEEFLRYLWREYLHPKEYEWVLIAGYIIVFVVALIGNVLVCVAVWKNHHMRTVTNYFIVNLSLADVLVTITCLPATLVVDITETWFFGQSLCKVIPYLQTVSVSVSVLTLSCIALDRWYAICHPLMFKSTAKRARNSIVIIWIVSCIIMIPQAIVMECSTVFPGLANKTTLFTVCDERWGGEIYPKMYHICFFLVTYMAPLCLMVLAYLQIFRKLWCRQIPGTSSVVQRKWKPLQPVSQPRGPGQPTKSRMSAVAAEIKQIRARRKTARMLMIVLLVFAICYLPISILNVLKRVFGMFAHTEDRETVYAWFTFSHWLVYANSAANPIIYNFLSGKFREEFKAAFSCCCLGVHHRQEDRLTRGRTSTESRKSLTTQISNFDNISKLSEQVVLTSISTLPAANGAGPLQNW
How it was run: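 Kb was derived from IC50 (4-parameter fit) by correcting for agonist level, using IP1 accumulation read by HTRF 665/615 ratio. Stimulus: 0.5 nM Orexin A for 60 min at 37 °C, following 15 min compound preincubation (8 points, 1% DMSO, LiCl-containing buffer pH 7.4) on hOX2R-expressing CHO-K1 cells.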

human Orexin 1 receptor = target: T2, human Orexin 1 receptor (Homo sapiens, UniProt O43613); assay: Assay A: In vitro testing of OX1R potency: OX1R IP1 (HTRF, CHO-K1/hOX1 cells, Orexin A as agonist); type: cell-based; conditions: for Kb: read-out: OX1R Kb (Orexin A concentration used)
T2 construct: stably expressing the full-length human Orexin 1 receptor; expressed in transfected cells; host or cells: CHO-K1 (CHO-K1/hOX1), co-expressing aequorin
T2 sequence (O43613 1-425): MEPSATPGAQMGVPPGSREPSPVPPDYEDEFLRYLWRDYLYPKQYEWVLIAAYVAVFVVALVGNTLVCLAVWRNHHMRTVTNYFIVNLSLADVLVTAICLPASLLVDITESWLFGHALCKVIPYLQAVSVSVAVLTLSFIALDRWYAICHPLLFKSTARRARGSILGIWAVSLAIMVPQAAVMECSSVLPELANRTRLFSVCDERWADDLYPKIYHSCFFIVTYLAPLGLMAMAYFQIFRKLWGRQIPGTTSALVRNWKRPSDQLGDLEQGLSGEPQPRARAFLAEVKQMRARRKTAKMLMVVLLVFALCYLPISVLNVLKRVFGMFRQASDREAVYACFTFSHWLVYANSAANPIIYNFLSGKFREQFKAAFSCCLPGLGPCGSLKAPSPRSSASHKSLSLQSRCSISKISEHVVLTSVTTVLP

| SMILES | half-life at 1 μM [1] [min] | Kb (human orexin 2 receptor) [nM] | OX2R Kb/OX1R Kb (human Orexin 1 receptor; OX1R Kb at 50 nM Orexin A) | Kb (human Orexin 1 receptor; Orexin A 50 nM) [nM] | OX2R Kb/OX1R Kb (human Orexin 1 receptor; OX1R Kb at 0.5 nM Orexin A) | Kb (human Orexin 1 receptor; Orexin A 0.5 nM) [nM] |
| --- | --- | --- | --- | --- | --- | --- |
| CCN(C(=O)c1c(-n2nccn2)ccc(C)c1F)[C@@H](C)COc1ccc(C(F)(F)F)cn1 [Example 92] | 18 | 16 | 640 | 0.025 |  |  |
| CCN(C(=O)c1ccccc1-c1cncc(C#N)c1)[C@@H](C)COc1ccc(C(F)(F)F)cn1 [Example 76] | 11 | 124 | 125 | 0.99 | 113 | 1.1 |
| CCN(C(=O)c1ccc(F)cc1-n1nccn1)[C@@H](C)COc1ccc(C(F)(F)F)cn1 [Example 1] | 38 | 58 |  |  | 171 | 0.34 |
| CCN(C(=O)c1ccc(C)cc1-c1nnc(C)o1)[C@@H](C)COc1ccc(Cl)cn1 [Example 38] | 11 | 877 |  |  | 313 | 2.8 |
| CCN(C(=O)c1ccc(F)cc1-c1nnc(C)o1)[C@@H](C)COc1ncc(C(F)(F)F)cc1F [Example 55] | 64 | 3100 |  |  | 430 | 7.2 |
| CCN(C(=O)c1cccc(Cl)c1-n1nccn1)[C@@H](C)COc1ccc(OC(F)(F)F)cn1 [Example 134] | 64 | 12 | 86 | 0.14 |  |  |
| CCN(C(=O)c1ccc(F)cc1-c1ncccn1)[C@@H](C)COc1ccc(Br)cn1 [Example 129] | 30 | 42 | 247 | 0.17 |  |  |
| CCN(C(=O)c1ccccc1-c1ncccn1)[C@@H](C)COc1ccc(Br)cn1 [Example 117] | 32 | 35 | 318 | 0.11 | 194 | 0.18 |
| CCN(C(=O)c1ccc(F)c(F)c1-n1nccn1)[C@@H](C)COc1ccc(C(F)(F)F)cn1 [Example 91] | 18 | 68 | 340 | 0.2 |  |  |
| CCN(C(=O)c1cccc(Cl)c1-n1nccn1)[C@@H](C)COc1ncc(C(F)(F)F)cc1F [Example 49] | 81 | 22 | 333 | 0.066 |  |  |
